Experimental data: the RepoRT retention time repository (doi:10.1021/acs.analchem.1c00972)

Tests used:
[1] = RP, Waters ACQUITY UPLC BEH C18, 100 × 1 mm, 1.7 µm, 50 °C, 0.3 mL/min, estimated dead time 0.17 min; A: water + 0.1% formic acid + 20 mM ammonium formate; B: methanol + 0.1% formic acid + 20 mM ammonium formate; gradient (min/%B) 0/0 15/100 21/100 22/0 30/0; details: stereoisomer not certain
[2] = RP, Waters ACQUITY UPLC BEH C18, 100 × 1 mm, 1.7 µm, 50 °C, 0.3 mL/min, estimated dead time 0.17 min; A: water + 10 mM ammonium bicarbonate; B: 10% water + 90% methanol + 10 mM ammonium bicarbonate; gradient (min/%B) 0/0 15/100 21/100 22/0 30/0; details: stereoisomer not certain

SMILES | LC retention time [1] [min] | LC retention time [2] [min]
CCC1CCCC(OC2CCC(N(C)C)C(C)O2)C(C)C(=O)C2=CC3C(C=C(C)C4CC(OC5OC(C)C(OC)C(OC)C5OC)CC43)C2CC(=O)O1 (single isomer, unassigned; isomer 2) [Spinosad (Isomer 2)] | 16.1 | 19.2
CCC(=NOCC=CCl)C1=C(O)CC(C2CCOCC2)CC1=O (single isomer, unassigned; peak1) [Tepraloxydim Peak1] | 14.7 | 9.25
NC(=Nc1ccccc1)Nc1ccccc1 [1,3-Diphenylguanidine] | 8.76 | 10
Nc1cccc2c(N)cccc12 [1,5-Naphthalenediamine] | 2.7 | 6.92
O=C(Nc1ccccc1)Nc1ccccc1Cl [1-(2-CHLOROPHENYL)-3-PHENYLUREA] | 13.9 | 14.2
CNC(=O)Nc1ccc(Cl)c(Cl)c1 [1-(3,4-Dichlorphenyl)-3-methyl-Harnstoff] | 12.8 | 13
Cn1cnc2c1c(=O)n(CCCC(=O)O)c(=O)n2C [1-(3-carboxypropyl)-3,7-dimethylxanthine] | 8.38 | 6.58
CCCCCCCCCCS(=O)(=O)O [1-Decanesulfonic acid] | 15.1 | 14.7
c1ccc2n[nH]nc2c1 [1H-Benzotriazole] | 7.88 | 6.66
CC(=O)OC1C(C)OC(n2cc(F)c(N)nc2=O)C1OC(C)=O (configuration not stated) [2',3'-Di-O-acetyl-5'-deoxy-5-fluorocytidine] | 9.43 | 9.61
CCCCCCCCCCSCCOCCO [2(2(decylsulfanyl)ethoxy)ethanol] | 17.7 | 18.1
CCCCCCCCSCCOCCO [2(2(octylsulfanyl)ethoxy)ethanol] | 16.5 | 16.9
c1ccc2sc(N3CCOCC3)nc2c1 [2(4-morpholinyl)benzothiazole] | 12.7 | 13.2
Nc1ccc(Cc2ccc(N)c(Cl)c2)cc1Cl [2,2'-dichloro-4,4'-methylenedianiline] | 13.9 | 14.3
c1ccc2sc(SSc3nc4ccccc4s3)nc2c1 [2,2-Dibenzothiazoyl disulfide] | 17.2 | 13.9
O=C(O)c1ccc(Cl)cc1Cl [2,4-Dichlorobenzoic acid] | 12.7 | 7.64
O=C(O)COc1ccc(Cl)cc1Cl [2,4-Dichlorophenoxyacetic acid] | 12.9 | 10.6
Cc1cc(C)c2ccccc2n1 [2,4-Dimethylchinolin] | 7.37 | 13.6
O=[N+]([O-])c1ccc(O)c([N+](=O)[O-])c1 [2,4-Dinitrophenol] | 9.71 | 6.21
Nc1c(Cl)cc(C(F)(F)F)cc1Cl [2,6-Dichloro-4-trifluoromethylaniline] | 16.2 | 15.9
NC(=O)c1c(Cl)cccc1Cl [2,6-Dichlorobenzamide] | 7.57 | 7.59
CC(C)(C)c1cccc(C(C)(C)C)c1O [2,6-di-tert-Butylphenol] | 16.2 | 16.6
COCCOCCOCCO [2-(2-(2-Methoxyethoxy)ethoxy)ethanol] | 6.67 | 6.68
O=Cc1ccccc1Nc1ccccc1Cl [2-(2-(Chlorophenyl)amino)benzaldehyde] | 15.7 | 16
CSc1nc2ccccc2s1 [2-(Methylthio)benzothiazole] | 14 | 14.3
COc1cc(OC)nc(N)n1 [2-Amino-4,6-dimethoxypyrimidine] | 7.19 | 8.74
